According to patent US11780845B2 (Relay Therapeutics, Inc., priority 2019, dated 2023):

Columns and labels:
FGFR2 = FGFR2 (Homo sapiens (Human), UniProt P21802); assay: FGFR2 Biochemical Caliper Assay
Protocol: Compounds of the present invention were also tested in a FGFR2 Biochemical Caliper Assay. Compounds were prepared in 10 mM DMSO solution and serially diluted into 11 concentrations by 3-fold dilution. […] 5 uL of ATP solution (100 uM) was added to start the reaction and the plate was incubated for 90 minutes, then 70 uL of stopping buffer (0.5M EDTA) was added to terminate the reaction. Each well was analyzed using EZ reader.

SNU16 cells = assay: SNU16 Cancer Cell Line Proliferation Assay; format: cell-based; settings: Homo sapiens; SNU-16 cells
Method in brief: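 SNU16 cells were seeded, held 24 h at 37 degrees, then dosed with an 11-point 3-fold dilution series prepared from a 10 mM DMSO stock. After 96 h incubation, viability was read by CellTiter Glo luminescence.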

FGFR2, sequence (P21802 22-821): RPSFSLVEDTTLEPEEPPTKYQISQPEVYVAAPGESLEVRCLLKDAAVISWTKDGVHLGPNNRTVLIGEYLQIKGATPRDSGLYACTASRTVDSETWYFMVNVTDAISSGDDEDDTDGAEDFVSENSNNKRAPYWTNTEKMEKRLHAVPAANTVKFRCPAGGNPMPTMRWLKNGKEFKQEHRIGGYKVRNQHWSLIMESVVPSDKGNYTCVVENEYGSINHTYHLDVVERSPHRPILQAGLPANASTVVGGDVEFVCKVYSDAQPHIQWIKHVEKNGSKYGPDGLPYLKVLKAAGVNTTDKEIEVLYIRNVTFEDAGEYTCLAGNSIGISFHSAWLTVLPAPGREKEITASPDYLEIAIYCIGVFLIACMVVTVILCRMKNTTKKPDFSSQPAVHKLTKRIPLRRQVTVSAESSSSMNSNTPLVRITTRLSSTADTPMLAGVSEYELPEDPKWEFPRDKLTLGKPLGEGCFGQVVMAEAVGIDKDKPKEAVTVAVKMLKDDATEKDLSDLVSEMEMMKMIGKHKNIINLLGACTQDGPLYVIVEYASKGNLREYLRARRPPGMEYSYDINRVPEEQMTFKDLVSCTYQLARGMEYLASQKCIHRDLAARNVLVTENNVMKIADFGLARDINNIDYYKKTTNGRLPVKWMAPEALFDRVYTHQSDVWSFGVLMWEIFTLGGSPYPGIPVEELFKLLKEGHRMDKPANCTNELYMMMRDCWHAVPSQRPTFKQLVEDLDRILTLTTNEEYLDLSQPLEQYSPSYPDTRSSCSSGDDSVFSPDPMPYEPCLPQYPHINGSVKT

Q: With `C=CC(=O)Nc1ccc(-c2[nH]c3ncnc(N)c3c2-c2ccc(C(=O)N3CCCC3)cc2)cc1` [Example 786] as the compound, how does the IC50 (FGFR2) read?
A: The IC50 was 0.25 to 1 µM.

Q: What about the IC50 (SNU16 cells) of the same compound?
A: The IC50 was 1 to 100 µM.

Q: Which results are given for `CC#CC(=O)Nc1ccc(-c2[nH]c3ncnc(N)c3c2-c2ccc(Oc3cccc(C)n3)c(OC)c2)cc1` [Example 787]?
A: IC50 (FGFR2): < 0.1 µM; IC50 (SNU16 cells): ≤ 0.1 µM

Q: `C=C(C)C(=O)Nc1ccc(-c2[nH]c3ncnc(N)c3c2-c2ccc(Oc3cccc(C)n3)c(OCC)c2)cc1` [Example 788] was tested. Which IC50 (FGFR2) did it give?
A: Its IC50 is < 0.1 µM.

Q: And the IC50 (SNU16 cells)?
A: The IC50 was ≤ 0.1 µM.

Q: With `C=CC(=O)N1CCC(c2c(-c3ccc(CN4CCOCC4=O)cc3)c3c(N)ncnc3n2C)C1` (stereo not drawn) [Example 789] as the compound, how does the IC50 (FGFR2) read?
A: Its IC50 is 1 to 100 µM.

Q: What about the IC50 (SNU16 cells) of the same compound?
A: The IC50 was 1 to 100 µM.

Q: `C=CC(=O)N1CCC(c2c(-c3ccc(C(O)C4CC4)cc3)c3c(N)ncnc3n2C)C1` (stereo not drawn) [Example 790] was tested. Which IC50 (FGFR2) did it give?
A: The IC50 was 0.25 to 1 µM.

Q: What about the IC50 (SNU16 cells) of the same compound?
A: Its IC50 is 1 to 100 µM.

Q: How did the IC50 (FGFR2) turn out when `C=CC(=O)N1CCC(c2c(-c3ccc(N(C)C4CCOCC4)cc3)c3c(N)ncnc3n2C)C1` (stereo not drawn) [Example 791] was run?
A: The IC50 was 0.25 to 1 µM.

Q: And the IC50 (SNU16 cells)?
A: Its IC50 is 0.25 to 1 µM.

Q: How did the IC50 (FGFR2) turn out when `C=CC(=O)N1CCC(c2c(-c3ccn(Cc4ccccc4)c(=O)c3)c3c(N)ncnc3n2C)C1` (stereo not drawn) [Example 792] was run?
A: The IC50 was 0.1 to 0.25 µM.

Q: What about the IC50 (SNU16 cells) of the same compound?
A: Its IC50 is 0.1 to 0.25 µM.

Q: `C=CC(=O)N1CCC(c2c(-c3cnn(C4CNC4)c3)c3c(N)ncnc3n2C)C1` (stereo not drawn) [Example 793] was tested. Which IC50 (FGFR2) did it give?
A: The IC50 was 0.25 to 1 µM.

Q: And the IC50 (SNU16 cells)?
A: Its IC50 is 1 to 100 µM.

Q: Which results are given for `C=CC(=O)N1CCC(c2c(-c3ccc(Cn4ccccc4=O)cc3)c3c(N)ncnc3n2C)C1` (stereo not drawn) [Example 794]?
A: IC50 (FGFR2): 1 to 100 µM; IC50 (SNU16 cells): 1 to 100 µM

Q: What does the source list for `C=C(C)C(=O)Nc1ccc(-c2cn3ncnc(N)c3c2-c2ccc(Oc3cccc(C)n3)cc2)cc1` [Example 795]?
A: IC50 (FGFR2): 1 to 100 µM; IC50 (SNU16 cells): 1 to 100 µM

Q: How did the IC50 (FGFR2) turn out when `C=C(C)C(=O)Nc1ccc(-c2[nH]c3ncnc(N)c3c2-c2ccc(C(=O)N3CCCC3)cc2)cc1` [Example 796] was run?
A: The IC50 was < 0.1 µM.

Q: And the IC50 (SNU16 cells)?
A: Its IC50 is ≤ 0.1 µM.

Q: With `C=CC(=O)N1CCC(c2c(-c3ccc(CN4CCCS4(=O)=O)cc3)c3c(N)ncnc3n2C)C1` (stereo not drawn) [Example 797] as the compound, how does the IC50 (FGFR2) read?
A: Its IC50 is 0.25 to 1 µM.

Q: What about the IC50 (SNU16 cells) of the same compound?
A: The IC50 was 0.25 to 1 µM.
